# Test results published in patent publication US12570612B2, “Substituted nitrogen heterocyclic compound and anesthetic effect thereof” (priority 2019, dated 2026).
# Like-named read-outs stand apart in the source and are kept apart here.
# What was measured:
# [1] = tested on: Sprague-Dawley rats; assay: animal or person; conditions: for ED50: LORR in rats, tail vein, brackets = 95% confidence limit; for Approximate therapeutic index / Minimal lethal dose: rats
# Procedure: Adult male Sprague-Dawley rats (250-300 g) were selected for the experiment. […] The anesthesia effects of the compounds were assessed in rats using a LORR assay and a period >30 s was considered as an indicator of general anesthesia.
# [2] = tested on: H295R cell line; assay: Adrenocortical function in vitro test: secretion of cortisol and corticosterone, Group B compounds; assay type: cell-based; conditions: H295R cells; for EC50: 0.1-10000 nM, HPLC-MS/MS
# [3] = Homo sapiens, NCI-H295R, read-out: EC50 (Corticosterone)
# [4] = Homo sapiens, NCI-H295R, read-out: EC50 (Cortisol)
# [5] = read-out: EC50 (Corticosterone)
SMILES,ED50 ([1]; Rattus norvegicus) [mg/kg],Approximate therapeutic index [1],Minimal lethal dose [1] [mg/kg],Corticosterone as an indicator to determine the presence of inhibition [2],Cortisol as an indicator to determine the presence of inhibition [2],"EC50 [2, 3] [nM]","EC50 [2, 4] [nM]",ED50 [1],"EC50 [2, 5] [nM]",EC50 ([2]; read-out: EC50 (Cortisol)) [nM]
C[C@H](c1ccccc1)n1nnc(I)c1C(=O)OC1CC1 [Compound B144],10 to 20,>2,>24,0,0,> 1000,> 1000,–,–,–
C[C@H](c1ccccc1)n1nnc(I)c1C(=O)OC1(C)COC1 [Compound B140],10 to 20,>2,>30,0,0,> 1000,> 1000,–,–,–
C=C=CC1(OC(=O)c2c(Br)nnn2[C@H](C)c2ccccc2)COC1 [Compound B101],–,>7,>13,0,0,–,–,"C (C indicates that the measured ED50 is in the range of 1.00-2.00 mg/kg (excluding 1.00 mg/kg, including 2.00 mg/kg))",> 1000,> 1000
C=CCOC(=O)c1cnnn1[C@H](C)c1ccccc1 [Compound B10],0.5 to 1,>16,>11,0,0,> 100,> 100,–,–,–
COC(=O)C1(OC(=O)c2c(Br)nnn2[C@H](C)c2ccccc2)CC1 [Compound B121],2 to 10,>3,>20,0,0,> 1000,> 1000,–,–,–
CCSC(=O)c1c(Br)nnn1[C@H](C)c1ccccc1 [Compound B120],0.5 to 1,>21,>15,0,0,> 1000,> 1000,–,–,–
CCOC(=O)c1nnn([C@H](C)c2ccccc2)c1C(F)(F)F [Compound B146],–,>8,>14,0,0,–,–,"C (C indicates that the measured ED50 is in the range of 1.00-2.00 mg/kg (excluding 1.00 mg/kg, including 2.00 mg/kg))",> 3000,> 3000
CC(C)OC(=O)c1cnnn1[C@H](C)c1ccccc1 [Compound B17],0.04 to 0.5,>56,>16,0,0,> 1000,> 1000,–,–,–
CO[C@H]1C[C@@H](OC(=O)c2cnnn2[C@H](C)c2ccccc2)C1 [Compound B8],0.5 to 1,>9,>8,0,0,> 1000,> 1000,–,–,–
CCOC(=O)c1c(Br)nnn1[C@H](C)c1ccccc1 [Compound B99],–,>16,>8,0,0,–,–,A (A indicates that the measured ED50 is in the range of 0.04-0.50 mg/kg (including 0.04 and 0.50 mg/kg)),> 3000,> 3000
CCOC(=O)c1c(Cl)nnn1[C@H](C)c1ccccc1 [Compound B65],0.5 to 1,>13,>9,0,0,> 1000,> 1000,–,–,–
C[C@H](c1ccccc1)n1nnc(Br)c1C(=O)OC1CC1 [Compound B116],1 to 2,>9,>12,0,0,> 3000,> 3000,–,–,–
CC(=O)C1=C(OC(=O)c2cnnn2[C@H](C)c2ccccc2)CCCC1 [Compound B15],0.5 to 1,>9,>9,0,0,> 1000,> 1000,–,–,–
C=CC1(OC(=O)c2c(F)nnn2[C@H](C)c2ccccc2)COC1 [Compound B51],1 to 2,>12,>14,0,0,> 1000,> 1000,–,–,–
CC=CC1(OC(=O)c2cnnn2C(C)c2ccccc2)COC1 (mixture of isomers) [Compound B21],–,>11,>8,0,0,–,–,"B (B indicates that the measured ED50 is in the range of 0.50-1.00 mg/kg (excluding 0.50 mg/kg, including 1.00 mg/kg))",> 100,> 100
CC(C)OC(=O)c1c(Br)nnn1[C@H](C)c1ccccc1 [Compound B115],0.5 to 1,>25,>18,0,0,> 3000,> 3000,–,–,–
C=C=CC1(OC(=O)c2c(F)nnn2[C@H](C)c2ccccc2)COC1 [Compound B35],0.04 to 0.5,>29,>8,0,0,> 1000,> 1000,–,–,–
C[C@H](c1ccccc1)n1nnc(I)c1C(=O)OCC1CC1 [Compound B133],0.5 to 1,>20,>14,0,0,> 1000,> 1000,–,–,–
C=C=CC1(OC(=O)c2cnnn2[C@H](C)c2ccccc2)CCCCC1 [Compound B11],–,>8,>6,0,0,–,–,"B (B indicates that the measured ED50 is in the range of 0.50-1.00 mg/kg (excluding 0.50 mg/kg, including 1.00 mg/kg))",> 1000,> 1000
CCOC(=O)c1c(C(F)(F)F)nnn1[C@H](C)c1ccccc1 [Compound B145],2 to 10,>4,>18,0,0,> 3000,> 3000,–,–,–
C[C@H](c1ccccc1)n1nncc1C(=O)OCC1CC1 [Compound B7],0.5 to 1,>31,>24,0,0,> 100,> 100,–,–,–
CO[C@H]1C[C@@H](OC(=O)c2c(F)nnn2[C@H](C)c2ccccc2)C1 [Compound B40],0.5 to 1,>6,>6,0,0,> 100,> 100,–,–,–
C=CC(CC)OC(=O)c1cnnn1[C@H](C)c1ccccc1 (some centres unmarked) [Compound B13],0.5 to 1,>2,>1,0,0,> 1000,> 1000,–,–,–
C[C@H](c1ccccc1)n1nnc(I)c1C(=O)OC1CCC1 [Compound B132],0.5 to 1,>16,>12,0,0,> 1000,> 1000,–,–,–
C=CCOC(=O)c1c(Br)nnn1[C@H](C)c1ccccc1 [Compound B108],–,>20,>14,0,0,–,–,"B (B indicates that the measured ED50 is in the range of 0.50-1.00 mg/kg (excluding 0.50 mg/kg, including 1.00 mg/kg))",> 3000,> 3000
C=C=CC1(OC(=O)c2c(I)nnn2[C@H](C)c2ccccc2)CCCCC1 [Compound B137],1 to 2,>9,>12,0,0,> 1000,> 1000,–,–,–
